Measured values reported in article PMC3855752, “Function and Distribution of 5-HT2 Receptors in the Honeybee (Apis mellifera)” (PLoS ONE, 2013).
Read-outs that look alike come from different tables or passages of the source.

Key:
Type in all cases: cell-based
[1] = molecular target: T1, Am5-HT2α (Apis mellifera, UniProt A0A8U1C256); assay: Fluo-4 intracellular Ca2+ assay in stable HEK […] cells
T1 construct: gene 5-HT2alpha; cDNA from drone brain

[2] = molecular target: T2, Am5-HT2β (Apis mellifera, UniProt A0ACM8QMF9); assay: as above
T2 construct: gene 5-HT2beta; cDNA from drone brain

[3] = molecular target: T1, Am5-HT2α; assay: Fluo-4 intracellular Ca2+ assay in stable HEK […] cells, inhibition of serotonin response; settings: read-out: Am5-HT2αIC50
[4] = molecular target: T2, Am5-HT2β; assay: as above; settings: read-out: Am5-HT2βIC50

T1 sequence (A0A8U1C256 entry or part of it): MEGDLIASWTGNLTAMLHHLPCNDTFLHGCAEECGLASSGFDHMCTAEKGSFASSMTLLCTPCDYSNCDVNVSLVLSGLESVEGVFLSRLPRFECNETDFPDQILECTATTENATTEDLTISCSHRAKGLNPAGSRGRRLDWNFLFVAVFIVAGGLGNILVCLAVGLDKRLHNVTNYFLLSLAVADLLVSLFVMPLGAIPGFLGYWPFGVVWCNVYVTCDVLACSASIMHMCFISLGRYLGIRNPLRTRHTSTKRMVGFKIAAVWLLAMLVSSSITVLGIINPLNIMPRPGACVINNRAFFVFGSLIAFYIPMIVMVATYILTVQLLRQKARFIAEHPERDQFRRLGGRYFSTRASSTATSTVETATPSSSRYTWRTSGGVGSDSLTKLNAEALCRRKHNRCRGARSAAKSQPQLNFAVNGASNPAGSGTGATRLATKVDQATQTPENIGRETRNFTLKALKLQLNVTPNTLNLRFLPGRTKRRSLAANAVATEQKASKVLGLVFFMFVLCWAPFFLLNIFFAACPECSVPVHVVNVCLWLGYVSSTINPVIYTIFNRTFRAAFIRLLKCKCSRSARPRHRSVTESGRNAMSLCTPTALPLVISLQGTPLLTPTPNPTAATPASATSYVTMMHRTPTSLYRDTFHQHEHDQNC
T2 sequence (A0ACM8QMF9 entry or part of it): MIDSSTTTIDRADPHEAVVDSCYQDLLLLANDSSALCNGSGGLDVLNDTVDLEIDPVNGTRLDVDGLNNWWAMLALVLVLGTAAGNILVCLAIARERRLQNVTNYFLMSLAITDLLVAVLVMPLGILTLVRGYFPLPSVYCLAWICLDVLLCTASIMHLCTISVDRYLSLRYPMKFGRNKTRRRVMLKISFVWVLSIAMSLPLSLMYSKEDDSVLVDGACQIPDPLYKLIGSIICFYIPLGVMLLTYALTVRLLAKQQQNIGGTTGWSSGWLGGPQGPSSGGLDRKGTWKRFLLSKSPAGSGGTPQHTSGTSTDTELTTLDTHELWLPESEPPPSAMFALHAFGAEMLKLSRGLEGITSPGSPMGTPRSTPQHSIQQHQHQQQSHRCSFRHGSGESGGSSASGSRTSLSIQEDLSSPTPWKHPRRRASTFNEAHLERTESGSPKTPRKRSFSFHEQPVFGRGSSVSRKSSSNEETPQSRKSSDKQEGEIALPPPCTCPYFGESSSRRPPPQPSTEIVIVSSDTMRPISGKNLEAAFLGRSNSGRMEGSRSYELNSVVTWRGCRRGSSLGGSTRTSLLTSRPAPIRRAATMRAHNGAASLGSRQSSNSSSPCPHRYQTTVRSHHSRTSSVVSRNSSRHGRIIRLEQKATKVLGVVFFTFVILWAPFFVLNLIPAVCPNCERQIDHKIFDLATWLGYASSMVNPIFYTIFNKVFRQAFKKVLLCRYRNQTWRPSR

Question: For `COc1ccc2[nH]cc(CCN)c2c1` [5-methoxytryptamine], which EC50 [1] is on record?
Answer: 70 nM

Question: And the EC50 [2]?
Answer: 60.4 nM

Question: `CCCN(CCC)C1CCc2cccc(O)c2C1` (stereo not shown) [8-OH-DPAT, 8-hydroxy-2-(di-n-propylamino)tetralin] was tested. Which EC50 ([1]; read-out: EC50) did it give?
Answer: 55900 nM

Question: And the EC50 ([2]; read-out: EC50)?
Answer: 562 nM

Question: `Cn1ccc2cc(NC(=O)Nc3cccnc3)ccc21` [SB-200646] was tested. Which IC50 [3] did it give?
Answer: 100 nM

Question: How did the IC50 [4] turn out when `O=C(c1ccc(F)cc1)C1CCN(CCn2c(=O)[nH]c3ccccc3c2=O)CC1` [ketanserin] was run?
Answer: 1500 nM

Question: `CSc1ccc2c(c1)C(N1CCN(C)CC1)Cc1ccccc1S2` (stereo not shown) [methiothepin] was tested. Which IC50 [3] did it give?
Answer: 600 nM

Question: For `CC[C@@H](CO)NC(=O)[C@@H]1C=C2c3cccc4c3c(cn4C)C[C@H]2N(C)C1` [methysergide], which IC50 [3] is on record?
Answer: 2200 nM

Question: Which results are given for `NCCc1c[nH]c2ccc(O)cc12` [serotonin]?
Answer: EC50 ([1]; read-out: EC50): 25.7 nM; EC50 ([2]; read-out: EC50): 32.5 nM
